Experimental data as given in patent US9714212B2, “Chemical compounds derived from normemantine and use of same in the medical field” (M2I DEVELOPMENT, priority 2013, dated 2017).

Columns and labels:
[1] = Mouse study of distribution in the body; type: in vivo, mice C57/Black 6J
Description: (§1) All the mice are the species C57/Black 6J provided by Charles River Laboratories (France) and about 8 weeks old.
(§2) The volume administered to each mouse is defined as […] and is administered once intravenously by means of a suitable syringe and needle.
At the prescribed time the mice are sacrificed, ground material from the organs is extracted and the concentration therein is analyzed by HPLC-MS assays.

NMDA receptors [2] = test system: T1, NMDA receptors; experiment: Displacement of tritiated MK-801 from cerebral cortex membrane homogenate (first experiment); type: binding; settings: for IC50: R0 MK-801, 2 hours at 37° C.
T1 construct: Emission ratio 1st test (%); other: R0 MK-801; [R1]; 1 · 10^−5 Mol/l; first test; Emission ratio 1st test (%); 1 · 10^−6 Mol/l; 1 · 10^−7 Mol/l; 1 · 10^−8 Mol/l; Emission ratio 1
Source text: (§3) In this example, the affinity of fluoroethyl normemantine for NMDA receptors will be compared with that of glutamate (Glu) and of the product Dizocilpine (called “MK-801”), which are known NMDA receptor […] (see Neuroscience Letters, Vol. 80 (1), p. 111-114). MK-801 binds to two different sites in rat brain (Brain Res. 378, p. 133).
(§4) To that end, a material containing NMDA receptors will first be immersed in a solution containing labeled MK-801 (first experiment) or glutamate (second experiment) and then these materials are incubated in solutions containing fluoroethyl normemantine at various concentrations. Next, the radioactive emissions before and after this second incubation are compared. Lower emissions mean that fluoroethyl normemantine has a stronger affinity for NMDA receptors than that of the references and that NMDA receptors are inhibited thereby.
By means of these measurements, a correlation can be established between the concentration of the compound IE and NMDA receptor inhibition. The magnitude of the half-maximal inhibitory concentration (IC50) is deduced therefrom.
As the product to be tested (product R1), either memantine or compound I is used. The experimental protocol is as follows: a homogenate of cerebral cortex membrane (140 μg of proteins) is prepared and then incubated for 2 hours at 37° C. with 10 nM […] (tritiated MK-801) in the absence or presence of compound R1 (in buffer containing 5 mM HEPES/Tris (pH=7.4) and 0.1 mM ethyleneglycol tetraacetic acid). The comparison is made with an incubation of […] MK-801. The samples are quickly filtered under vacuum through glass-fiber filters and rinsed with 50 mM iced Tris-HCl. The filters are dried and their radioactivity is counted on a scintillation counter. The concentration of compound R1 varies, and by comparing for each concentration the difference in emission between the control filter (MK-801 alone) and the MK-801/R1 mixture filter, the ratio of inhibition of compound R1 for each concentration is obtained.

NMDA receptors [3] = test system: T2, NMDA receptors; experiment: Displacement of tritiated glutamate from cerebral cortex membrane homogenate (second experiment); type: binding; settings: R0 Glu
T2 construct: Emission ratio 1st test (%); other: R0 Glu; [R1]; 1 · 10^−6 M; first test; Emission ratio 1st test (%); 1 · 10^−7 M; 1 · 10^−8 M; 1 · 10^−9 M
Source text: as §3
as §4, with “thereby. […]” for “thereby.”
The experimental protocol is much the same as in the first experiment: a homogenate of cerebral cortex membrane (140 μg of protein) is prepared and then incubated for 1 hour at 4° C. with 5 nM tritiated glutamate (tritiated Glu) in the absence or presence of fluoroethyl normemantine (in buffer containing 5 mM Tris-HCl (pH=7.7) and 10 mM ethyleneglycol tetraacetic acid). […] The filters are dried and their radioactivity is counted on a scintillation counter. […]

[4] = Toxicity after a single intravenous administration in mice; type: in vivo, mice C57/Black 6J; settings: male mice, single 0.125 μg/kg intravenously
Description: as §1, §2

Solubility in water = type: physicochemical
[5] = Lipophilicity log(P), n-octanol / pH 7.4 buffer, HPLC; type: physicochemical; settings: 50/50 by volume pH 7.4 buffer solution and octanol
Source text: Lipophilicity: determined by log(P)=log([I]n-octanol/[I]water), by placing the compound (I) in a 50/50 mixture by volume of pH 7.4 buffer solution and octanol, separating the phases, then assaying by means of HPLC the level of the compound (I) present in each of said phases.

[6] = mice, 0.125 μg/kg intravenously, sacrifice at 3 minutes

With NC12CC3CC(C1)CC(CCF)(C3)C2 [Fluoroethyl normemantine] the “affinity for the brain (share in brain), comparison with prior art” value ([1]; comparison sentence of b89, time not restated) was 12%, the “affinity, order of magnitude” value (NMDA receptors [2]; R0 MK-801) was ~10^−6 M and the “displacement of MK-801” value (NMDA receptors [2]; R0 MK-801) was “displaces MK-801”. The IC50 (NMDA receptors [2]) was 6.1 µM, the “ability to displace Glu” value (NMDA receptors [3]) was “unable to displace Glu” and the IC50 (NMDA receptors [3]; 1 hour at 4° C.) was “cannot be measured”.
With CC12CC3CC(C)(C1)CC(N)(C3)C2 [Memantine] the “affinity, order of magnitude” value (NMDA receptors [2]; R0 MK-801) was ~10^−6 M, the IC50 (NMDA receptors [2]) was 1.1 µM and the “Mean (emission ratio)” value (NMDA receptors [2]; R0 MK-801, [R1] 1 · 10^−5 Mol/l) was 10.8%. For the same molecule, the “Mean (emission ratio)” value (NMDA receptors [2]; R0 MK-801, [R1] 1 · 10^−6 Mol/l) was 52.3%, the “Mean (emission ratio)” value (NMDA receptors [2]; R0 MK-801, [R1] 1 · 10^−7 Mol/l) was 88.8% and the “Mean (emission ratio)” value (NMDA receptors [2]; R0 MK-801, [R1] 1 · 10^−8 Mol/l) was 101.4%. The “Mean (emission ratio)” value (NMDA receptors [2]; R0 MK-801, [R1] 1 · 10^−9 Mol/l) was 96.9%, the “Mean (emission ratio)” value (NMDA receptors [2]; R0 MK-801, [R1] 3 · 10^−6 Mol/l) was 29.0% and the “Mean (emission ratio)” value (NMDA receptors [2]; R0 MK-801, [R1] 3 · 10^−7 Mol/l) was 73.1%. The “Mean (emission ratio)” value (NMDA receptors [2]; R0 MK-801, [R1] 3 · 10^−8 Mol/l) was 97.5% and the “Mean (emission ratio)” value (NMDA receptors [2]; R0 MK-801, [R1] 3 · 10^−9 Mol/l) was 103.3%.
In the case of NC12CC3CC(C1)CC(CCF)(C3)C2 [^18F-fluoroethyl normemantine], the “toxicity (conclusion)” value [4] is reported as “not toxic at the doses tested”, the “Brain: % of the injected dose” value [1, 6] is reported as 12 % of the injected dose and the “Kidneys: share of injected dose” value [1, 6] is reported as 18%. For the same molecule, the “Liver: share of injected dose” value [1, 6] was 20% and the solubility (Solubility in water) was greater than 100 mM.
In the case of NC12CC3CC(C1)CC(CCF)(C3)C2 [compound (I)], the “log(P)” value [5] is reported as 3.1 (±0.5).
